Measurements reported in the NIST ThermoML archive (doi:10.1021/acs.jced.5b00503).
± gives the expanded uncertainty stated by the source.

Columns and labels:
[1] = 101 kPa, Liquid, Falling or rolling sphere viscometry
[2] = xn = mol fraction of the nth substance listed; conditions: 101 kPa, Liquid, Falling or rolling sphere viscometry

Q: Which results are given for CCCCCC[n+]1ccn(C)c1.O=S(=O)([N-]S(=O)(=O)C(F)(F)F)C(F)(F)F?
A: viscosity ([1]; 288.2 K): 117.8 ± 5.8 mPa·s; viscosity ([1]; 298.2 K): 70.4 ± 3 mPa·s; viscosity ([1]; 308.2 K): 45.4 ± 1.9 mPa·s; viscosity ([1]; 318.2 K): 31.23 ± 1.3 mPa·s

Q: For CCCCCC[n+]1ccn(C)c1.O=S(=O)([N-]S(=O)(=O)C(F)(F)F)C(F)(F)F + ClC(Cl)Cl, which viscosity ([2]; 288.2 K, x1 = 0.074) is on record?
A: 1.701 ± 0.1 mPa·s

Q: And the viscosity ([2]; 288.2 K, x1 = 0.186)?
A: 4.556 ± 0.28 mPa·s

Q: What about the viscosity ([2]; 288.2 K, x1 = 0.266) of the same compound?
A: 8.57 ± 0.37 mPa·s

Q: And the viscosity ([2]; 288.2 K, x1 = 0.418)?
A: 20.36 ± 0.86 mPa·s

Q: What about the viscosity ([2]; 288.2 K, x1 = 0.511) of the same compound?
A: 30.16 ± 1.3 mPa·s

Q: What about the viscosity ([2]; 288.2 K, x1 = 0.565) of the same compound?
A: 38 ± 1.6 mPa·s

Q: What about the viscosity ([2]; 288.2 K, x1 = 0.651) of the same compound?
A: 50.6 ± 2.1 mPa·s

Q: What about the viscosity ([2]; 288.2 K, x1 = 0.707) of the same compound?
A: 60.6 ± 2.6 mPa·s

Q: And the viscosity ([2]; 288.2 K, x1 = 0.805)?
A: 78.4 ± 3.5 mPa·s

Q: What about the viscosity ([2]; 288.2 K, x1 = 0.906) of the same compound?
A: 95.7 ± 4.5 mPa·s

Q: And the viscosity ([2]; 288.2 K, x1 = 1)?
A: 117.8 ± 5.8 mPa·s

Q: And the viscosity ([2]; 298.2 K, x1 = 0.074)?
A: 1.462 ± 0.089 mPa·s

Q: And the viscosity ([2]; 298.2 K, x1 = 0.186)?
A: 3.667 ± 0.22 mPa·s

Q: And the viscosity ([2]; 298.2 K, x1 = 0.266)?
A: 6.63 ± 0.28 mPa·s

Q: And the viscosity ([2]; 298.2 K, x1 = 0.418)?
A: 14.63 ± 0.62 mPa·s

Q: What about the viscosity ([2]; 298.2 K, x1 = 0.511) of the same compound?
A: 20.92 ± 0.89 mPa·s

Q: What about the viscosity ([2]; 298.2 K, x1 = 0.565) of the same compound?
A: 25.55 ± 1.1 mPa·s

Q: And the viscosity ([2]; 298.2 K, x1 = 0.651)?
A: 33.3 ± 1.4 mPa·s

Q: And the viscosity ([2]; 298.2 K, x1 = 0.707)?
A: 38.9 ± 1.7 mPa·s

Q: And the viscosity ([2]; 298.2 K, x1 = 0.805)?
A: 49.6 ± 2.1 mPa·s

Q: What about the viscosity ([2]; 298.2 K, x1 = 0.906) of the same compound?
A: 59.1 ± 2.5 mPa·s

Q: What about the viscosity ([2]; 298.2 K, x1 = 1) of the same compound?
A: 70.4 ± 3 mPa·s

Q: What about the viscosity ([2]; 308.2 K, x1 = 0.074) of the same compound?
A: 1.265 ± 0.077 mPa·s

Q: What about the viscosity ([2]; 308.2 K, x1 = 0.186) of the same compound?
A: 3.002 ± 0.18 mPa·s

Q: And the viscosity ([2]; 308.2 K, x1 = 0.266)?
A: 5.25 ± 0.22 mPa·s

Q: And the viscosity ([2]; 308.2 K, x1 = 0.418)?
A: 10.96 ± 0.46 mPa·s

Q: And the viscosity ([2]; 308.2 K, x1 = 0.511)?
A: 15.19 ± 0.64 mPa·s

Q: And the viscosity ([2]; 308.2 K, x1 = 0.565)?
A: 18.18 ± 0.77 mPa·s

Q: And the viscosity ([2]; 308.2 K, x1 = 0.651)?
A: 23.1 ± 1 mPa·s

Q: And the viscosity ([2]; 308.2 K, x1 = 0.707)?
A: 26.6 ± 1.1 mPa·s

Q: What about the viscosity ([2]; 308.2 K, x1 = 0.805) of the same compound?
A: 33.7 ± 1.4 mPa·s

Q: What about the viscosity ([2]; 308.2 K, x1 = 0.906) of the same compound?
A: 39.5 ± 1.7 mPa·s

Q: And the viscosity ([2]; 308.2 K, x1 = 1)?
A: 45.4 ± 1.9 mPa·s

Q: What about the viscosity ([2]; 318.2 K, x1 = 0.074) of the same compound?
A: 1.104 ± 0.067 mPa·s

Q: What about the viscosity ([2]; 318.2 K, x1 = 0.186) of the same compound?
A: 2.5 ± 0.15 mPa·s

Q: And the viscosity ([2]; 318.2 K, x1 = 0.266)?
A: 4.29 ± 0.18 mPa·s

Q: What about the viscosity ([2]; 318.2 K, x1 = 0.418) of the same compound?
A: 8.5 ± 0.36 mPa·s

Q: And the viscosity ([2]; 318.2 K, x1 = 0.511)?
A: 11.49 ± 0.48 mPa·s

Q: And the viscosity ([2]; 318.2 K, x1 = 0.565)?
A: 13.58 ± 0.57 mPa·s

Q: What about the viscosity ([2]; 318.2 K, x1 = 0.651) of the same compound?
A: 16.97 ± 0.72 mPa·s

Q: What about the viscosity ([2]; 318.2 K, x1 = 0.707) of the same compound?
A: 19.16 ± 0.81 mPa·s

Q: What about the viscosity ([2]; 318.2 K, x1 = 0.805) of the same compound?
A: 24 ± 1 mPa·s

Q: What about the viscosity ([2]; 318.2 K, x1 = 0.906) of the same compound?
A: 27.7 ± 1.2 mPa·s

Q: What about the viscosity ([2]; 318.2 K, x1 = 1) of the same compound?
A: 31.23 ± 1.3 mPa·s
